Assay results: patent US9072707B2, “Use of C-terminal domain of IGFBP-5 comprising heparin-binding domain as an angiogenesis inhibitor” (RESEARCH & BUSINESS FOUNDATION SUNGKYUNKWAN UNIVERSITY, priority 2012, dated 2015)

Legend:
[1] = system: IL-6; assay: RT-PCR analysis of IL-6 gene expression in 2774 ovarian cancer cell line; assay type: cell-based
Method: (§1) A plasmid (pSecTaq2/Hygro A, Invitrogen) (2 μg/dish (100 mm dish)) that expresses the C-terminal domain (SEQ ID NO: 1), L-domain (SEQ ID NO: 2) and N-terminal domain (SEQ ID NO: 3) of IGFBP-5 was transfected into the 2774 ovarian cancer cell line using Lipofectamine 2000 (Invitrogen). The transfection was performed according to the method provided by Invitrogen.
(§2) At 24 hours after transfection, viable colonies were collected in DMEM (+10% FBS+penicillin and hygromycin) containing hygromycin (500 μg/ml), and then positive colonies were selected by a Western blot method using Myc antibody.
(§3) The […] cell line was treated overnight with various concentrations or 60 μg/ml of the peptides synthesized in Example 4, after which the cell line was additionally treated with fresh peptides for 7 hours. The cell line was treated for a total of 24 hours. Then, the cells were lysed with Trizol (Invitrogen), and RNA was isolated from the cells. cDNA was synthesized from the isolated […] using oligo dT and superscriptase III (Invitrogen), and then subjected to RT-PCR.
(§4) However, the PCR reaction using TNF-a primers was performed for 35 cycles at an annealing temperature of 57° C.

[2] = system: TNF-α; assay: RT-PCR analysis of TNF-alpha gene expression in 2774 ovarian cancer cell line; assay type: cell-based
Method: as §1, §2, §3, §4

[3] = system: HUVEC; assay: Migration (scratch) assay; assay type: cell-based, human; settings: 60 μg/ml peptide, 36 h pretreatment, overnight, FIG. 6b
Method: In order to examine the influence of each domain peptide of IGFBP-5 on the migration of HUVEC cells, HUVEC cells were seeded onto a 12-well plate at a density of 1×10^5 cells/well, and then treated with 60 μg/ml of each of the peptides for 36 hours. Specifically, the cells were treated with each of the peptides for 7 hours, and then treated overnight with a fresh peptide.
The plate was scratched with a 200-μl micropipette tip, and treated overnight with 60 μg/ml of a fresh peptide, after which the migration of the cells was observed. For this purpose, the cells were photographed under a microscope at 0 hour and the overnight time point. In addition, for a control group, cells were treated with PBS.

[4] = system: HUVEC; assay: Tube formation assay on Matrigel; assay type: cell-based, human; settings: 60 μg/ml peptide, 24 h pretreatment, 6 h on Matrigel; FIG. 6a
Method: In order to examine the influence of each domain peptide of IGFBP-5 on the tube formation of HUVEC cells, HUVEC cells were plated onto a 6-well plate at a density of 1×10^5 cells/well, and then treated with 60 μg/ml of each of the peptides for 24 hours.
Before a tube formation assay, growth factor-reduced Matrigel (BD Bioscience) diluted to 1:2 with PBS was added to a 24-well plate in an amount of 300 μl/well, and then solidified at 37° C. for 1 hour. The HUVEC cells treated with each of the peptides for 24 hours were trypsinized, suspended in 300 μl of EGM medium (diluted to 1:3 with EBM medium) and treated with 60 μg/ml of a fresh peptide, and then the cells were incubated on the prepared Matrigel for 6 hours.

[5] = system: VEGF; assay: RT-PCR analysis of VEGF gene expression in 2774 ovarian cancer cell line; assay type: cell-based
Method: as §1, §2, §3, §4

[6] = system: 2774-GFP cell line; assay: Ovarian cancer animal model, intraperitoneal 2774-GFP cells; assay type: in vivo, nude mouse; settings: 30 mg/kg intraperitoneally 8 times at intervals of 2-3 days, FIG. 7
Method: Each of 5-week-old nude mouse was intraperitoneally injected with 5×10^6 2774 cells that express GFP.
In this experiment, 8 mice were injected with the BP5-C peptide, and for a control group, 7 mice were injected with PBS.

[7] = system: 2774 ovarian cancer cell line; assay: Subcutaneous tumor growth of 2774 cell lines expressing IGFBP-5 truncation mutants; assay type: in vivo, nude mouse; settings: nude mice injected subcutaneously with 2774 cells expressing the domain, compared to Vec/2774; FIGS. 2a, 2b
Method: A 5-week-old nude mouse subcutaneously injected with 1×10^6 cells that express the truncation mutant of IGFBP-5, and then the tumor volume of the mice was measured at intervals of 3-4 days. In this experiment, two mice were used for each of the cell lines, and each of the cell lines was injected into two points of each mouse. This experiment was repeated three times.

[8] = 2774 cells treated with 60 μg/ml of each peptide, FIG. 5A
[9] = 2774 cells treated with peptide at 30, 60 and 100 μg/ml, FIG. 3A
[10] = 2774 cell line stably expressing the domain, FIG. 1B

Row | Molecule | expression of IL-6 gene [1, 8] | expression of TNF-α gene [2, 8] | migration of HUVEC [3] | tube formation of HUVEC [4] | expression of VEGF gene [5, 8] | expression of IL-6 gene [1, 9] | tumor volume of collected tumors ([6]; compared to animals injected with PBS) | tumor growth ([6]; compared to control group (PBS)) | expression of TNF-α gene [2, 9] | expression of VEGF gene [5, 9] | expression of IL-6 gene [1, 10] | expression of TNF-a gene [2, 10] | expression of VEGF gene [5, 10] | growth of cancer (tumor volume) [7]
1 | BP2-C: C-terminal domain peptide of IGFBP-2 including IGF-1-binding domain, amino acids 228-245, KHGLYNLKQCKMSLNGQR (SEQ ID NO: 7) [reference compound] | no effect | no effect | did not inhibit | no influence | no effect |  |  |  |  |  |  |  |  | 
2 | BP2-HBD: heparin-binding domain derived from IGFBP-2, amino acids 171-188, KHHLGLEEPKKLRPPPAR (SEQ ID NO: 6) [reference compound] | no effect | no effect | did not inhibit | no influence | no effect |  |  |  |  |  |  |  |  | 
3 | BP5-C: amino acids 201-218 of IGFBP-5, RKGFYKRKQCKPSRGRKR (SEQ ID NO: 4) | inhibited | inhibited | inhibited | inhibited | inhibited | inhibited | significantly reduced | significantly inhibited | inhibited | inhibited |  |  |  | 
4 | BP5-mut: IGFBP-5 201-218 with G203A and Q209A mutations, RKAFYKRKACKPSRGRKR (SEQ ID NO: 5) | inhibited | inhibited | inhibited | inhibited | inhibited |  |  |  |  |  |  |  |  | 
5 | C-terminal domain: domain consisting of amino acids 169-252 of IGFBP-5 (SEQ ID NO: 1), stably expressed in 2774 cells (C/2774) (protein) QGPCRRHMEASLQELKASPRMVPRAVYLPNCDRKGFYKRKQCKPSRGRKRGICWCVDKYGMKLPGMEYVDGDFQCHTFDSSNVE |  |  |  |  |  |  |  |  |  |  | significantly inhibited | significantly inhibited | significantly inhibited | significantly inhibited
